Two compounds from patent US20120277440A1, “IMINO DERIVATIVES, PROCESS FOR PREPARATION THEREOF, AND IN[…]” (MEIJI SEIKA PHARMA CO., LTD., priority 2010, published 2012) can be followed below.

For the compound `CCS(=O)(=O)N=C1SCCN1Cc1ccc(Cl)nc1`, the melting point was in the range of 125 to 126 °C. With `CC(=O)N=C1SCCN1Cc1ccc(Cl)nc1` the figure was 76 to 78 °C.

For orientation: melting point means the temperature of the solid-liquid transition.
